Literature values in US20040062802A1, “Maximizing effectiveness of substances used to improve health and well being” (priority 1998, published 2004).
Where two headings read alike, the source gives them in different places.

What was measured:
[1] = system: HIV; settings: 200 mg AZT orally every 4 hours for 7 day periods alternating with ddC 0.03 mg/kg orally every 4 hours for 7 day periods; cited from earlier work
[2] = cited from earlier work
[3] = system: bone marrow cells; settings: mouse, in vivo; cited from earlier work
[4] = mean, N = 24, cited from earlier work; for AUC0-24 h: 1 mg daily 10 days then 2 mg daily 5 days
[5] = system: male patients with clinical of BPH; settings: cited from earlier work; for I-PSS Endpoint / Qmax Endpoint: 24 weeks; for I-PSS Endpoint / Qmax Endpoint / I-PSS Baseline / Qmax Baseline: mean; for I-PSS Baseline / Qmax Baseline: after 2 week placebo run-in
[6] = system: mouse model; settings: drug received at the beginning of the sleep phase; cited from earlier work
[7] = cited from earlier work; remark: listed apart in the source
[8] = 800 mg group versus 400 mg group

In the case of `Cc1cn([C@H]2C[C@H](N=[N+]=[N-])[C@@H](CO)O2)c(=O)[nH]c1=O` [AZT], the “outcome of alternating regimen” value [1] is given as “promising treatment regimen”, the “duration of the effect of AZT” value ([2]; 400 mg group versus 800 mg group) is given as “significantly longer” and the “AZT withdrawn or dose reduced” value [2, 8] is given as “reduced more frequently”. For the same compound, the adverse reaction [2, 8] was “more frequently observed” and the “toxicity (peripheral blood parameters, proportion of bone marrow cells arrested at the S-phase gate)” value [3] was “significantly less toxic”.
For `COc1cc2nc(N3CCN(C(=O)C4COc5ccccc5O4)CC3)nc(N)c2cc1OC` (stereo not shown) [Doxazosin], the AUC0-24 h ([4]; evening dosing (8 pm)) is listed as 253.66 ng·h/mL, the Cmax ([4]; evening dosing (8 pm)) is listed as 15.76 ng/mL and the T1/2 ([4]; evening dosing (8 pm)) is listed as 18.77 h. The Tmax ([4]; evening dosing (8 pm)) was 5.60 h, the AUC0-24 h ([4]; morning dosing (8 am)) was 227.90 ng·h/mL and the Cmax ([4]; morning dosing (8 am)) was 16.98 ng/mL. For the same compound, the T1/2 ([4]; morning dosing (8 am)) was 19.52 h, the Tmax ([4]; morning dosing (8 am)) was 3.46 h and the “clinical efficacy versus placebo” value ([5]; at 6 weeks and endpoint) was “significantly differed from placebo”. The “I-PSS Endpoint” value ([5]; evening (8 pm) dosing) was 11.7, the “Qmax Endpoint” value ([5]; evening (8 pm) dosing) was 12.30 mL/s and the “I-PSS Mean Change” value ([5]; evening (8 pm) dosing) was −6.7. For the same compound, the “I-PSS Responders” value ([5]; evening (8 pm) dosing) was 62.6, the “Qmax Mean Change” value ([5]; evening (8 pm) dosing) was 1.94 mL/s and the “Qmax Responders” value ([5]; evening (8 pm) dosing) was 28.4. The “I-PSS Baseline” value ([5]; evening (8 pm) group) was 18.2, the “Qmax Baseline” value ([5]; evening (8 pm) group) was 10.49 mL/s and the “I-PSS Endpoint” value ([5]; morning (8 am) dosing) was 11.0. The “Qmax Endpoint” value ([5]; morning (8 am) dosing) was 11.84 mL/s, the “I-PSS Mean Change” value ([5]; morning (8 am) dosing) was −6.9 and the “I-PSS Responders” value ([5]; morning (8 am) dosing) was 57.4. The “Qmax Mean Change” value ([5]; morning (8 am) dosing) was 1.51 mL/s, the “Qmax Responders” value ([5]; morning (8 am) dosing) was 29.7 and the “I-PSS Baseline” value ([5]; morning (8 am) group) was 18.5. The “Qmax Baseline” value ([5]; morning (8 am) group) was 10.17 mL/s.
For `N.N.O=C([O-])C1(C(=O)[O-])CCC1.[Pt+2]` [carboplatin, Carboplatin], the marrow toxicity [6] is listed as “lowest marrow toxicity” and the mean survival time [6] is listed as “longest mean survival time”.
For `COC(=O)C(c1ccccc1)C1CCCCN1` (stereo not shown) [methylphenidate], the plasma profile ([7]; ADD, conventional 10 mg at 7 am and 10 mg at 12 pm, FIG. I solid line) is listed as “high dosages of the drug would be present in the body throughout the afternoon and early evening” and the plasma profile ([7]; narcolepsy, conventional 20 mg at 7 am, 10 mg at 12 pm and 10 mg at 5 pm, FIG. II solid line) is listed as “lower dosages of the drug are present in the patient during the morning hours”.
